Consider 16 compounds from patent US20240336602A1 (Katholieke Universiteit Leuven, priority 2020, published 2024).

The term IC50 denotes the midpoint of a concentration-inhibition curve. Low readings indicate greater potency in that assay, high ones weaker potency in that assay.

T1 sequence (J9SQF3 1-1709 isoform J9SQF3-12): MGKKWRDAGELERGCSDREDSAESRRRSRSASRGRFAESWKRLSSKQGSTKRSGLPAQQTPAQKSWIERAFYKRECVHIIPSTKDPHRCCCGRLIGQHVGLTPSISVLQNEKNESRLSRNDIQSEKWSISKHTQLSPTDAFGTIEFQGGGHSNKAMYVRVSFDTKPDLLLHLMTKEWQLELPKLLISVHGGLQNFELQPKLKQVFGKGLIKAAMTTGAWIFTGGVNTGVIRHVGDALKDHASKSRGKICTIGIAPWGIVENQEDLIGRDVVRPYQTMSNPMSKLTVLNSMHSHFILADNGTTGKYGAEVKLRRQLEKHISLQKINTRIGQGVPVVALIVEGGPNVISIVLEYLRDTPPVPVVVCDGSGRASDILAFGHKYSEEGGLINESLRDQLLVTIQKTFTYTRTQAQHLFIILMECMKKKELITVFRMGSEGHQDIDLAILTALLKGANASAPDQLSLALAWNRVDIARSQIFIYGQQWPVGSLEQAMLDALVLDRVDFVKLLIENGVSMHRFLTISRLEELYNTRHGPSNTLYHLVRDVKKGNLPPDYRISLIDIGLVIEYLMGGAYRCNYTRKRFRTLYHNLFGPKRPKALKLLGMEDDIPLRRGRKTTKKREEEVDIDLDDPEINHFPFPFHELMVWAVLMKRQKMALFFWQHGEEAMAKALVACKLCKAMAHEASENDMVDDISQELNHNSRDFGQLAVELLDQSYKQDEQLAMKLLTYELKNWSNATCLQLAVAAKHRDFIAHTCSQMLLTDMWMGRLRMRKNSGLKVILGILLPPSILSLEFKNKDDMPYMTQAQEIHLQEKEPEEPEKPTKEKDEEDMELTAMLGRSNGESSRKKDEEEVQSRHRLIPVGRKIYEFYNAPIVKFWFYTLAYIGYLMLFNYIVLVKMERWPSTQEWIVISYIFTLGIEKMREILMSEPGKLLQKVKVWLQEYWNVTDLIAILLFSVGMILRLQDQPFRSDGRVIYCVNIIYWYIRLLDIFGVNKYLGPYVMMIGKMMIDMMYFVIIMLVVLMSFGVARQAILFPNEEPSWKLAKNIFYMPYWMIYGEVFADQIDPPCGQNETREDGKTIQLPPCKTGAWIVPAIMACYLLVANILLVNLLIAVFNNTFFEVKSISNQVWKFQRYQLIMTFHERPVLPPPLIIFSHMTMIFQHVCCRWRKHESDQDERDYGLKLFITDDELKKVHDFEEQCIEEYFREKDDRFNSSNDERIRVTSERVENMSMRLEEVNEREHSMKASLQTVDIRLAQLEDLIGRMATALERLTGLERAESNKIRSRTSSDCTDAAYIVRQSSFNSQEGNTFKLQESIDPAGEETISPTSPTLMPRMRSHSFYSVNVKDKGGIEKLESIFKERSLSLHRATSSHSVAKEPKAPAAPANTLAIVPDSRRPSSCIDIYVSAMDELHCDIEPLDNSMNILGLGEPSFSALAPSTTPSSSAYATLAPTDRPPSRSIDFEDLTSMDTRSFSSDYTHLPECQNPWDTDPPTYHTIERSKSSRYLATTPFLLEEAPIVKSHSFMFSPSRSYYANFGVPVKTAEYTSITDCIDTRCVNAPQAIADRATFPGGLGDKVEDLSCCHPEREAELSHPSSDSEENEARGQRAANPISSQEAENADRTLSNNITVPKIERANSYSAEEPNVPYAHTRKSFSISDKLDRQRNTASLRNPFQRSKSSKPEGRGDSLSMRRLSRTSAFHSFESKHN

The first test has as its target T1, mouse TRPM3a2 (mTRPM3) ion channel (Mus musculus, UniProt J9SQF3).
T1 construct: expressed in transfected cells; host or cells: flip-in HEK293
Description: TRPM3 ion channel driven Ca2+ uptake, Fluo-4 AM assay (PS-stimulated, overexpressing flip-in HEK293 cells). The test is classed as cell-based. The settings on record: PS (50 μM) stimulated, cpds. 600-666. In outline:
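Flip-in HEK293 cells overexpressing mTRPM3α2, loaded with Fluo-4 AM, were added to wells with compound plus 50 μM pregnenolone sulfate in Ca2+-containing Krebs buffer and read immediately (ex 485/em 535 nm). Percent inhibition was scaled between PS-plus-vehicle and positive-control-inhibitor signals.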
Consider `Cc1oc2ccc(OCc3cncn3C)cc2c1C(=O)NC1(CO)CCOCC1` [cpd 607, N-(4-(hydroxymethyl)tetrahydro-2H-pyran-4-yl)-2-methyl-5-((1-methyl-1H-imidazol-5-yl)methoxy)benzofuran-3-carboxamide], for which the IC50 lay in the range of 1 to 20 µM. Compound `Cc1oc2ccc(OCc3cccn(C)c3=O)cc2c1C(=O)NC1(CO)CCOCC1` [cpd 609, N-(4-(hydroxymethyl)tetrahydro-2H-pyran-4-yl)-2-methyl-5-((1-methyl-2-oxo-1,2-dihydropyridin-3-yl)methoxy)benzofuran-3-carboxamide] came in with a half-inhibitory concentration (IC50) of 1 to 20 µM. As for `Cc1oc2ccc(OCc3cccc(=O)n3C)cc2c1C(=O)NC1(CO)CCOCC1` [cpd 610, N-(4-(hydroxymethyl)tetrahydro-2H-pyran-4-yl)-2-methyl-5-((1-methyl-6-oxo-1,6-dihydropyridin-2-yl)methoxy)benzofuran-3-carboxamide], the IC50 was 1 to 20 µM.

For the compound `Cc1nccc(COc2ccc3oc(C)c(C(=O)NC4(CO)CCOCC4)c3c2)n1` [cpd 612, N-(4-(hydroxymethyl)tetrahydro-2H-pyran-4-yl)-2-methyl-5-((2-methylpyrimidin-4-yl)methoxy)benzofuran-3-carboxamide], the IC50 was in the range of 1 to 20 µM. On the same count and under the same terms, as for `Cc1coc(COc2ccc3oc(C)c(C(=O)NC4(CO)CCOCC4)c3c2)n1` [cpd 616, N-(4-(hydroxymethyl)tetrahydro-2H-pyran-4-yl)-2-methyl-5-((4-methyloxazol-2-yl)methoxy)benzofuran-3-carboxamide], the figure is 1 to 20 µM; as for `Cc1csc(COc2ccc3oc(C)c(C(=O)NC4(CO)CCOCC4)c3c2)n1` [cpd 617, N-(4-(hydroxymethyl)tetrahydro-2H-pyran-4-yl)-2-methyl-5-((4-methylthiazol-2-yl)methoxy)benzofuran-3-carboxamide], 1 to 20 µM; as for `Cc1cnc(COc2ccc3oc(C)c(C(=O)NC4(CO)CCOCC4)c3c2)cn1` [cpd 619, N-(4-(hydroxymethyl)tetrahydro-2H-pyran-4-yl)-2-methyl-5-((5-methylpyrazin-2-yl)methoxy)benzofuran-3-carboxamide], 1 to 20 µM.

As to `Cc1ccc(COc2ccc3oc(C)c(C(=O)NC4(CO)CCOCC4)c3c2)cn1` [cpd 622, N-(4-(hydroxymethyl)tetrahydro-2H-pyran-4-yl)-2-methyl-5-((6-methylpyridin-3-yl)methoxy)benzofuran-3-carboxamide], the IC50 lay in the range of 1 to 20 µM. `Cc1oc2ccc(OCc3ncccn3)cc2c1C(=O)NC1(CO)CCOCC1` [cpd 626, N-(4-(hydroxymethyl)tetrahydro-2H-pyran-4-yl)-2-methyl-5-(pyrimidin-2-ylmethoxy)benzofuran-3-carboxamide] had an IC50 of 1 to 20 µM. Same read-out and setting: next, `Cc1oc2ccc(OCc3ccnc(O)c3)cc2c1C(=O)NC1(CO)CCOCC1` [cpd 628, N-(4-(hydroxymethyl)tetrahydro-2H-pyran-4-yl)-5-((2-hydroxypyridin-4-yl)methoxy)-2-methylbenzofuran-3-carboxamide]: 1 to 20 µM. On to `COc1ccc(COc2ccc3oc(C)c(C(=O)NC4(CO)CCOCC4)c3c2)cn1` [cpd 632, N-(4-(hydroxymethyl)tetrahydro-2H-pyran-4-yl)-5-((6-methoxypyridin-3-yl)methoxy)-2-methylbenzofuran-3-carboxamide], for which the IC50 fell in the range of 1 to 20 µM. On the same count and under the same terms, as for `Cc1oc2ccc(OCc3ccc4nccn4c3)cc2c1C(=O)NC1(CO)CCOCC1` [cpd 633, N-(4-(hydroxymethyl)tetrahydro-2H-pyran-4-yl)-5-(imidazo[1,2-a]pyridin-6-ylmethoxy)-2-methylbenzofuran-3-carboxamide], the figure is 1 to 20 µM; as for `Cc1oc2ccc(OCc3cccnc3C(F)(F)F)cc2c1C(=O)N(CCO)C1CCC1` [cpd 659, N-cyclobutyl-N-(2-hydroxyethyl)-2-methyl-5-((2-(trifluoromethyl)pyridin-3-yl)methoxy)benzofuran-3-carboxamide], 1 to 20 µM.

Still in this test, the particulars now being: PS (50 μM) stimulated, cpds. 667-751.
Compound `Cc1cc(COc2ccc3oc(C)c(C(=O)N[C@@H](CO)C(N)=O)c3c2)on1` [cpd 674] returned a concentration for half-maximal inhibition (IC50) not above 1 µM. On the same count and under the same terms, as for `Cc1oc2ccc(OCc3c[nH]nc3C(F)(F)F)cc2c1C(=O)N[C@H](C(N)=O)[C@@H](C)O` [cpd 685, N-((2S,3R)-1-amino-3-hydroxy-1-oxobutan-2-yl)-2-methyl-5-((3-(trifluoromethyl)-1H-pyrazol-4-yl)methoxy)benzofuran-3-carboxamide], the figure is not above 1 µM; as for `Cc1oc2ccc(OCc3ncccc3C3CC3)cc2c1C(=O)NC1(CO)CCOCC1` [cpd 705, 5-((3-cyclopropylpyridin-2-yl)methoxy)-N-(4-(hydroxymethyl)tetrahydro-2H-pyran-4-yl)-2-methylbenzofuran-3-carboxamide], 1 to 20 µM.
